What all share (assay): normalised viability (% of control), CellTiter-Blue; higher = more viable cells (about 100 = DMSO control)
Holding throughout (details): incubation time: 72 h

One experiment relates to DU-4475. On the procedure: (§1)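 DSRT, CellTiter-Blue viability, 72 h incubation. Signal is normalised to DMSO and benzethonium chloride controls. Value is the normalised response at dose 6.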
Another experiment relates to MDA-MB-453. On the procedure: as §1
The test system of the next experiment is CAL-51. On the procedure:
as §1

The test system of the next experiment is CAL-148. How it is done: as §1
In another experiment the test system is HDQ-P1. On the procedure: as §1
The test system of a further experiment is CAL-85-1. How it is done: as §1

Experimental findings from the supplement of paper PMC4862054 are described below.

Molecules are shown by their SMILES. “And” between values parts separate entries of the source, which are not always exact repeats. Equal values may be shown once.

For `Cc1cc(Nc2cc(CN3CCOCC3)c3nc(C)c(Cc4ccc(Cl)cc4F)n3n2)n[nH]1` (300 nM), the normalised viability in the experiment on DU-4475 is 104%; with MDA-MB-453, 63.9%; in the experiment with CAL-51 it was 90.5%; with CAL-148 it was 89.3%; with HDQ-P1, 45.8%; with CAL-85-1, 103%.

Consider `N#Cc1ccc(COC[C@H]2O[C@@H](n3c(NCc4ccc(Cl)c(Cl)c4)nc4c(N)ncnc43)[C@H](O)[C@@H]2O)cc1` (300 nM), for which the normalised viability was determined as 91.7% in the experiment with DU-4475; 112% with MDA-MB-453; 117% in the experiment with CAL-51; 110% in the experiment on CAL-148; 67% with HDQ-P1; 96.9% in the experiment with CAL-85-1.

On to `COc1cc(OC2CCN(C)CC2)ccc1Nc1ncc2c(n1)n(C1CCCC1)c(=O)n2C` [AZ 3146] (300 nM), for which the normalised viability in the experiment on DU-4475 came to 115%; in the experiment with MDA-MB-453 it was 97.2%; in the experiment on CAL-51, 87.6%; in the experiment with CAL-148, 115%; in the experiment on HDQ-P1, 76.6%; in the experiment on CAL-85-1, 109%.

As to `CN(C)c1nc(N(C)C)nc(N(C)C)n1` [Altretamine] (300 nM), the normalised viability is 110% in the experiment with DU-4475; 112% with MDA-MB-453; 108% with CAL-51; 112% with CAL-148; 88.5% in the experiment on HDQ-P1; 95.9% in the experiment with CAL-85-1.

In the case of `COC(=O)c1ccc2c(c1)NC(=O)/C2=C(\Nc1ccc(N(C)C(=O)CN2CCN(C)CC2)cc1)c1ccccc1` [BIBF 1120] (300 nM), the normalised viability with DU-4475 was determined as 91.9%; in the experiment with MDA-MB-453 it was 105%; in the experiment with CAL-51 it was 93.9%; in the experiment with CAL-148, 96.1%; in the experiment on HDQ-P1, 100%; in the experiment with CAL-85-1, 111%.

With `Nc1cc(C(F)(F)F)c(-c2cc(N3CCOCC3)nc(N3CCOCC3)n2)cn1` [BKM-120] (300 nM), the normalised viability was determined as 102% in the experiment with DU-4475; 71.2% in the experiment with MDA-MB-453; 78.4% with CAL-51; 92.5% in the experiment on CAL-148; 71.9% in the experiment with HDQ-P1; 81.2% with CAL-85-1.

As for `O=C(/C=C/c1cccc(S(=O)(=O)Nc2ccccc2)c1)NO` [Belinostat] (300 nM), the normalised viability with DU-4475 amounted to 59.2%; in the experiment with MDA-MB-453, 16.9%; with CAL-51, 105%; with CAL-148 it was 49.3%; with HDQ-P1, 26.6%; in the experiment with CAL-85-1 it was 72.5%.

For the compound `O=P1(N(CCCl)CCCl)NCCCO1` (stereo not given) [Cyclophosphamide] (1200 nM), the normalised viability with DU-4475 came out at 96.2%; with MDA-MB-453, 112%; in the experiment with CAL-51, 106%; with CAL-148, 107%; in the experiment on HDQ-P1, 81.5%; in the experiment on CAL-85-1 it was 108%.

Turning to `C=C1C[C@@H]2[C@H](CC[C@]3(C)C(=O)CC[C@@H]23)[C@@]2(C)C=CC(=O)C=C12` [Exemestane] (300 nM), the normalised viability is 81.7% in the experiment on DU-4475; 90.8% in the experiment on MDA-MB-453; 97.1% in the experiment on CAL-51; 87% with CAL-148; 78% with HDQ-P1; 88.5% with CAL-85-1.

For the compound `COc1cc2ncnc(Nc3ccc(F)c(Cl)c3)c2cc1OCCCN1CCOCC1` [Gefitinib] (300 nM), the normalised viability in the experiment on DU-4475 was 83.8% and 84.4%; with MDA-MB-453 it was 98.2% and 83.2%; with CAL-51, 104% and 106%; in the experiment on CAL-148, 95.6% and 84.7%; in the experiment on HDQ-P1 it was 64% and 66.2%; in the experiment on CAL-85-1 it was 69.8% and 65.9%.

Take `O=C(Nc1ccncc1)C(=O)c1cn(Cc2ccc(Cl)cc2)c2ccccc12` [Indibulin] (300 nM): the normalised viability with DU-4475 was found to be 115%; with MDA-MB-453, 41.4%; with CAL-51 it was 71.3%; with CAL-148, 95.7%; in the experiment on HDQ-P1, 30.7%; in the experiment on CAL-85-1, 55.8%.

Take `NC(=O)c1ccc(I)c([N+](=O)[O-])c1` [Iniparib] (300 nM): the normalised viability with DU-4475 is 84%; in the experiment on MDA-MB-453, 95.2%; in the experiment on CAL-51, 98.7%; in the experiment with CAL-148 it was 89.2%; in the experiment with HDQ-P1, 87.2%; with CAL-85-1 it was 88.8%.

In the case of `CCc1c2c(nc3ccc(OC(=O)N4CCC(N5CCCCC5)CC4)cc13)-c1cc3c(c(=O)n1C2)COC(=O)[C@]3(O)CC` [Irinotecan] (300 nM), the normalised viability in the experiment with DU-4475 was 74.1% and 85.6%; in the experiment on MDA-MB-453, 97.6% and 103%; in the experiment with CAL-51 it was 101% and 105%; in the experiment with CAL-148, 82.5% and 96.9%; with HDQ-P1 it was 64.5% and 88.1%; with CAL-85-1, 81.2% and 99.8%.

Take `Oc1ccc2c(c1)CC[C@H](c1ccccc1)[C@@H]2c1ccc(OCCN2CCCC2)cc1` [Lasofoxifene] (30 nM): the normalised viability with DU-4475 came out at 93%; in the experiment with MDA-MB-453, 116%; with CAL-51 it was 106%; in the experiment with CAL-148, 116%; with HDQ-P1, 60.8%; in the experiment on CAL-85-1 it was 100%.

In the case of `Cc1ccc(NC(=O)c2ccc(CN3CCN(C)CC3)cc2)cc1Nc1nc(-c2cccnc2)cs1` [Masitinib] (300 nM), the normalised viability with DU-4475 is 98.7%; in the experiment with MDA-MB-453, 88.5%; in the experiment on CAL-51, 98.2%; in the experiment on CAL-148, 84.7%; with HDQ-P1 it was 68.5%; with CAL-85-1, 90.4%.
